What is called MIC50 is the lowest concentration that inhibits either 50% of growth or 50% of the strains tested, depending on the study. A high value points to weaker potency. As a reminder, the MIC90 is the lowest concentration that inhibits either 90% of growth or 90% of the strains tested, depending on the study. Higher therefore signals lower susceptibility. For orientation: ED50 means the dose that gives a 50% effect, or the effect in half of the subjects. Higher therefore signals weaker potency. Usually MIC stands for the smallest concentration in the dilution series that meets the test's criterion for growth inhibition.

≈ marks a conversion by molar mass, not a printed value. Entries after “also recorded” stand apart in the source; their conditions may differ. Read-outs that look alike come from different tables or passages of the source.

Data on three molecules can be found in patent US8563503B2, “Antibiotic, its nucleotide sequence, methods of construction and uses thereof” (Protein Design Lab. Ltd., priority 2011, dated 2013).

One assay relates to Enterococcus. Nature of the assay: MIC by Agar Doubling Dilution Method, clinical isolates. Type of assay: cell-based, Enterococcus faecalis. Here is the method:
(§1) (3) Culture Solution • MH Broth Culture Solution: 25 g was added into […] distilled water, heat to dissolve, subpackaged, autoclaved at 116° C. for 20 minutes, and MH Solid Culture Medium, 36 g was added into 1000 ml distilled water, autoclaved at 116° C. for 20 minutes, used for drug sensitive test of Gram-positive and negative aerobic bacteria. • Blood culture solution for Enterococcus faecalis, which was prepared by adding defibration rabbit blood into the MH culture solution by 5-10% and cultured at 37° C. in 5% CO2 for 24 hours. 2. Experimental Methods (1) The Measurement of Minimum Inhibitory Concentration (MIC) • The Minimum Inhibitory Concentration (MIC) of PMC-SA1 was measured by Agar Doubling Dilution Method. The bacterium was inoculated on the surface of agar plate containing different concentration of drugs by multipoint inoculate instrument (Deneley A400). The bacterial content per point was 10^5 CFU/ml. After incubated at 37° C. for 18-24 hours, the result can be observed. The least concentration of drugs in plate culture solution without bacterium growing was Minimum Inhibitory Concentration (MIC) of the drug to the said bacteria. 3. Results

In assay [1] the test system is Staphylococcus aureus ATCC 29213. Briefly: Protection test in vivo (intravenous injection) of infected mice. Set-up: species or system Kungming mice. Here is the method:
(§2) The drugs used in this embodiment were same with that used in embodiment 4.
(§3) The above drugs were dissolved and diluted by sterilized water, and the injection concentrations of each drug were 10 mg/kg, 5 mg/kg and 2.5 mg/kg.
(§4) After given intraperitoneal injection of fatal dose of above-mentioned bacteria, the mice of each drug experimental group respectively were given once intravenous injection of the drug by 10 mg, 5 mg, 2.5 mg/kg. The results were observed per 24 hours for 7-14 days. The positive result is mice's death.

The test system of assay [2] is Enterococcus ATCC 700802. The description is as above. Set-up: species or system Kungming mice. Here is the method: as §2, §3, §4
In assay [3] the test system is E. coli 02-1-65. The assay is described as above. Set-up: species or system Kungming mice. Here is the method:
as §2, §3, §4

Assay [4] relates to Staphylococcus aureus MRSA BAA-42. Described as above. Set-up: species or system Kungming mice. Here is the method: as §2, §3, §4
In assay [5] the test system is Enterococcus ATCC 700802. Nature of the assay: MIC against the infecting strain (Table 2). It counts as cell-based, Enterococcus faecalis. Conditions: ATCC700802. Here is the method:
as §1

Assay [6] concerns Staphylococcus aureus (MRSA). Nature of the assay: MIC by Agar Doubling Dilution Method, clinical isolates. It counts as cell-based. Here is the method:
as §1

For assay [7], the system named is Staphylococcus epidermidis (MSSE strain). Described as above. It counts as cell-based. Here is the method: as §1
The subject of assay [8] is Staphylococcus aureus (MSSA). Described as above. It counts as cell-based. Here is the method: as §1
In assay [9] the test system is Staphylococcus epidermidis (MRSE). Described as above. Type of assay: cell-based. Here is the method:
as §1

Another assay concerns E. coli. The description is as above. Type of assay: cell-based. Here is the method: as §1
The test system of a further assay is Baumanii. Described as above. It counts as cell-based. Here is the method: as §1
Assay [10] has as its system Staphylococcus aureus ATCC 29213. Briefly: MIC against the infecting strain (Table 2). Type of assay: cell-based. Conditions: ATCC29213. Here is the method: as §1
Assay [11] concerns E. coli 02-1-65. Briefly: MIC against the infecting strain (Table 2). It counts as cell-based. Here is the method:
as §1

The test system of assay [12] is Staphylococcus aureus MRSA BAA-42. Nature of the assay: MIC against the infecting strain (Table 2). It counts as cell-based. Here is the method:
as §1

For assay [13], the system named is methicillin-resistant Staphylococcus aureus ATCC BAA-42. Nature of the assay: Bacteria growth curve (A595 nm), comparison of the novel antibiotics. It counts as cell-based. Conditions: drug 5 μg/ml, 37° C., A595 nm per hour. Here is the method: The following experiment was set for comparing bacteriostasis effects of 6 kinds of the novel antibiotics. The experimental bacteriaum was United States Standard Strain methicillin-resistant Staphylococcus aureus ATCC BAA-42. 5 microliter of bacteria solution (10^6 CFU/ml level bacterium amount) was added into 10 ml culture solution containing 1% peptone, 1% NaCl, 0.5% yeast extract, 0.5% glucose and 0.1% K2HPO4, total of 8 groups were prepared. The first group as control was added 0.3 M NaCl+50 mM boric acid buffer fluid by the same volume as that of antibiosis polypeptide liquid added in any experimental groups, the second group was added penicillin G sodium by 5 μg/ml, PMC-SA1, PMC-SA2, PMC-SA3, PMC-SA4, PMC-SE and PMC-PA were added in the other experimental groups with preservative fluid being 0.3 M NaCl+50 mM boric acid buffer fluid by 5 ug/ml.
The solution of above groups was put into 100 ml conical flask, 200 rpm, grew at 37° C. 100 μl was sampled per hour, and added onto 96-pore ELISA plate and measured bacteria grown cloudiness by spectrophotometer (A595 nm) color comparison. The bacteria growth curve was drawn up to compare the bacteriostasis efficacy of antibiosis polypeptide.

The subject of assay [14] is Staphylococcus epidermidis reference culture No. 26069. Nature of the assay: Bacteria growth curve (A595 nm cloudiness), Staphylococcus epidermidis. Conditions: drug 2 μg/ml, 37° C., A595 nm per hour. Type of assay: cell-based. Here is the method:
The bacterium is Staphylococcus epidermidis reference culture No. 26069, purchased from China Center of Culture Collection (National Institute for the Control of Pharmaceutical and Biological Products). 3 microliter of bacterium solution (10^6 CFU/ml level bacterium amount) was added into 10 ml culture solution containing 1% peptone, 1% NaCl, 0.5% yeast extract, 0.5% glucose and 0.1% K2HPO4. Totally four groups were prepared. The first group as control was added 0.3M NaCl+50 mM boric acid buffer fluid by the same volume with that of antibiosis polypeptide liquid added in any experimental groups, the second group was added penicillin G sodium by 2 μg/ml, PMC-SA1 and PMC-SE was added in the other experimental groups by 2 μg/ml (0.3 M NaCl+50 mM boric acid buffer fluid was preservative fluid).
The solution of above groups was put into 100 ml conical flask, 200 rpm, grew at 37° C. 100 μl was sampled per hour, and added onto 96-pore ELISA plate to measure bacteria grown cloudiness by spectrophotometer (A595 nm) color comparison. The bacteria growth curve was drawn up to compare the bacteriostasis efficacy of the novel antibiotics.

Where [15] appears, read: Staphylococcus epidermidis, MRSE.

Take `CC1(C)S[C@@H]2[C@H](NC(=O)[C@H](N)c3ccccc3)C(=O)N2[C@H]1C(=O)[O-].[Na+]` [Ampicillin, Ampicillin Sodium]: the MIC50 is 0.5 µg/mL against Enterococcus (Enterococcus clinical strains); 16 µg/mL in [6] (MRSA clinical strains); 0.03 µg/mL in [7] (MSSE clinical strains); 0.25 µg/mL in assay [8] (MSSA clinical strains); 16 µg/mL in [9] (MRSE clinical strains); more than 128 µg/mL with E. coli (E. coli clinical strains). The same molecule registered an MIC50 against Baumanii (Baumanii clinical strains) of more than 128 µg/mL. Moreover, the MIC90 is 16 µg/mL with Enterococcus (Enterococcus clinical strains); 32 µg/mL in [6] (MRSA clinical strains); 0.25 µg/mL in [7] (MSSE clinical strains); 1 µg/mL in assay [8] (MSSA clinical strains); 64 µg/mL in [9] (MRSE clinical strains); more than 128 µg/mL against E. coli (E. coli clinical strains). In the assay with Baumanii (Baumanii clinical strains), this molecule showed an MIC90 of more than 128 µg/mL. Also, the “Scope of MIC” value was 0.25 to 16 µg/mL in the assay on Enterococcus (Enterococcus clinical strains), 0.06 to 64 µg/mL in [6] (MRSA clinical strains), <0.015-0.025 ^ mg/L in [8] (MSSA clinical strains) and 0.06 to 64 µg/mL in assay [9] (MRSE clinical strains). The ED50 is reported as 14.05 mg/kg in assay [1] (mice, infected with 4.6 × 10^5 cfu/ml i.p., drug once intravenous); 3.00 mg/kg in the assay with Enterococcus ATCC 700802 [2] (mice, infected with 7.0 × 10^6 cfu/ml i.p., drug once intravenous); more than 32 mg/kg with E. coli 02-1-65 [3] (mice, infected with 3.8 × 10^5 cfu/ml i.p., drug once intravenous); 25.41 mg/kg in [4] (mice, infected with 6.5 × 10^5 cfu/ml i.p., drug once intravenous). For the same molecule, the MIC is 2.5 µg/mL against Enterococcus ATCC 700802 [5], 1.5 µg/mL in assay [10], more than 128 µg/mL in the assay with E. coli 02-1-65 [11] (E. coli 02-1-65) and 16 µg/mL in assay [12] (Staphylococcus aureus MRSA BAA-42).
On to `CN[C@H](CC(C)C)C(=O)N[C@H]1C(=O)N[C@@H](CC(N)=O)C(=O)N[C@H]2C(=O)N[C@H]3C(=O)N[C@H](C(=O)N[C@H](C(=O)O)c4cc(O)cc(O)c4-c4cc3ccc4O)[C@H](O)c3ccc(c(Cl)c3)Oc3cc2cc(c3O[C@@H]2O[C@H](CO)[C@@H](O)[C@H](O)[C@H]2O[C@H]2C[C@](C)(N)[C@H](O)[C@H](C)O2)Oc2ccc(cc2Cl)[C@H]1O` [Vancomycin], for which the MIC50 was 1 µg/mL (≈ 0.69 µM) in the assay on Enterococcus (Enterococcus); 0.25 µg/mL (≈ 0.173 µM) in assay [6] (Staphylococcus aureus, MRSA); 0.5 µg/mL (≈ 0.345 µM) in [7] (Staphylococcus epidermidis); 0.5 µg/mL (≈ 0.345 µM) in [8] (Staphylococcus aureus, MSSA); 0.5 µg/mL (≈ 0.345 µM) in assay [9] (setting [15]); more than 128 µg/mL against E. coli (Escherichia coli). In the assay on Baumanii, this molecule displayed an MIC50 of more than 128 µg/mL. The MIC90 is 2 µg/mL (≈ 1.38 µM) in the assay on Enterococcus (Enterococcus); 1 µg/mL (≈ 0.69 µM) in assay [6] (Staphylococcus aureus, MRSA); 0.5 µg/mL (≈ 0.345 µM) in assay [7] (Staphylococcus epidermidis); 1 µg/mL (≈ 0.69 µM) in [8] (Staphylococcus aureus, MSSA); 1 µg/mL (≈ 0.69 µM) in assay [9] (setting [15]); more than 128 µg/mL against E. coli (Escherichia coli). For the same molecule, the MIC90 against Baumanii is more than 128 µg/mL. Also, the MIC in the assay with Enterococcus (Enterococcus, read-out: Scope of MIC) is 0.5 to 50 µg/mL (≈ 0.345 to 34.5 µM); in the assay on Enterococcus ATCC 700802 [5], more than 16 µg/mL; in [6] (Staphylococcus aureus, MRSA, read-out: Scope of MIC), 0.004 to 2 µg/mL (≈ 0.00276 to 1.38 µM); in [7] (Staphylococcus epidermidis, read-out: Scope of MIC), 0.06 to 0.5 µg/mL (≈ 0.0414 to 0.345 µM); in assay [8] (Staphylococcus aureus, MSSA, read-out: Scope of MIC) it was 0.03 to 1 µg/mL (≈ 0.0207 to 0.69 µM); in assay [9] (Staphylococcus epidermidis, MRSE, read-out: Scope of MIC), 0.25 to 2 µg/mL (≈ 0.173 to 1.38 µM). Besides, the MIC in the assay with E. coli (Escherichia coli, read-out: Scope of MIC) was more than 128 µg/mL; in [10] it was 0.5 µg/mL (≈ 0.345 µM); in the assay with E. coli 02-1-65 [11] (Escherichia coli, 02165), 128 µg/mL (≈ 88.3 µM); in assay [12] (Staphylococcus aureus) it was 0.5 µg/mL (≈ 0.345 µM). Besides, the ED50 in assay [1] (Staphylococcus aureus, ATCC29213) was 2.42 mg/kg; with Enterococcus ATCC 700802 [2] (Enterococcus, ATCC700802), 3.66 mg/kg; in the assay with E. coli 02-1-65 [3] (Escherichia coli, 02165), more than 40.1 mg/kg; in [4] (Staphylococcus aureus) it was 3.54 mg/kg.

B1: PMC-SE: Staphylococcus epidermidis pheromone linked to C-terminus of allosteric colicin Ia′; SEQ ID NO. 21; plasmid pBHC-SE (protein)
chain: SDPVRITNPAAESLGYDSDGREIMGVDIYLNPPRVDVFKGTPPAWSSFGNKTIWGGNEWVDDSPTRSDIEKRDKEITAYKNTLSAQQKENENKRTEAGKRLSAAIAAREKDENTLKTLRAGNADAADITRQEFRLLQAELREYGFRTEIAGYDALRLHTESRMLFADADSLRISPREARSLIEQAEKRQKDAQNADKKAADMLAEYERRKGILDTRLSELEKNGGAALAVLDAQQARLLGQQTRNDRAISEARNKLSSVTESLNTARNALTRAEQQLTQQKNTPDGKTIVSPEKFPGRSSTNHSIVVSGDPRFAGTIKITTSAVIDNRANLNYLLSHSGLDYKRNILNDRNPVVTEDVEGDKKIYNAEVAEWDKLRQRLLDARNKITSAESAVNSARNNLSARTNEQKHANDALNALLKEKENIRNQLSGINQKIAEEKRKQDELKATKDAINFTTEFLKSVSEKYGAKAEQLAREMAGQAKGKKIRNVEEALKTYEKYRADINKKINAKDRAAIAAALESVKLSDISSNLNRFSRGLGYAGKFTSLADWITEFGKAVRTENWRPLFVKTETIIAGNAATALVALVFSILTGSALGIIGYGLLMAVTGALIDESLVEKANKFWGIDSVCASYF
modifications: The peptide of PMC-SE
notes: Staphylococcus epidermidis pheromone linked to C-terminus of allosteric colicin Ia′; 21; plasmid pBHC-SE
In the case of B1, the “bacteriostasis effect on growth of methicillin-resistant Staphylococcus aureus (bacteria growth curve)” value in [13] is given as “less better”. Moreover, in assay [14], the “growth of Staphylococcus epidermidis (bacteria growth curve)” value is reported as “effectively restrained; also recorded: completely restrained”.
